# Biological target: T1, Calmodulin-sensitive adenylate cyclase (Bacillus anthracis, UniProt P40136)
# T1 sequence (P40136 whole entry): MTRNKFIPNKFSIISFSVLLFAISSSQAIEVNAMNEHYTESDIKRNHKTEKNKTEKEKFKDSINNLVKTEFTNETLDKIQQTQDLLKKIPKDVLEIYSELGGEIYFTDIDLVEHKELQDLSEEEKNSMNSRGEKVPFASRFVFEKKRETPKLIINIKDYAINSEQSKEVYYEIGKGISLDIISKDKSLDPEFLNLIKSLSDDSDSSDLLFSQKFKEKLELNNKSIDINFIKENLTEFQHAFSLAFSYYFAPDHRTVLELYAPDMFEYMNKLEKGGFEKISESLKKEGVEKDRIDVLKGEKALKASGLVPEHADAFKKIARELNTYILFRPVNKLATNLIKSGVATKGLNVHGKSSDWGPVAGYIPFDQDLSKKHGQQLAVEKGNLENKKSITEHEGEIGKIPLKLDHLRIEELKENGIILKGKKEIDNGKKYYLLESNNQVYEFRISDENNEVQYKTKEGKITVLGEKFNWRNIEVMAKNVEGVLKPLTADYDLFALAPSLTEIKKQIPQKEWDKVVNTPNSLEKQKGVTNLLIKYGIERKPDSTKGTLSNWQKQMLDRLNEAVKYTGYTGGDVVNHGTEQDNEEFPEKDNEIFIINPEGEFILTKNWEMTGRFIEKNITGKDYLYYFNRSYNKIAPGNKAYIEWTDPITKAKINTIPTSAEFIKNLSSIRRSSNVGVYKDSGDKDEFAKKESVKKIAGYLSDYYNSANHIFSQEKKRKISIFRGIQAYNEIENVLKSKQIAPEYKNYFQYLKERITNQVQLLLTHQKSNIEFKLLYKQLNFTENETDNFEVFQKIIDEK
# Assay: Inactivation of Bacillus anthracis edema factor in presence of CaM incubated for 10 to 240 mins by EnzChek pyrophosphate assay
structure (smiles),measurement,value
Nc1cc(OC2CCN(C(=O)c3ccc(S(=O)(=O)F)cc3)CC2)ccn1,Ki,59.1 µM
